The test system of data set [1] is dengue virus type 4. Kind of data set: Antiviral activity against Dengue virus 4 infected in syrian hamster BHK-21 cells assessed as inhibition of plaque formation pretreated with compound for 45 mins followed by viral infection for 24 hrs. Format: functional. As to conditions: BHK-21, 24.75 h, time 1485 min.
Data set [2] in a line: Cytotoxicity against mouse BaF3 cells expressing BCR-ABL assessed as cell viability. Format: toxicity, cell-based.
Data set [3] deals with dengue virus type 1. The experiment in a line: Antiviral activity against Dengue virus 1 infected in syrian hamster BHK-21 cells assessed as inhibition of plaque formation pretreated with compound for 45 mins followed by viral infection for 24 hrs. The class given is functional. As to conditions: BHK-21, 24.75 h, time 1485 min.
For data set [4], the system named is Kunjin virus. The experiment in a line: Antiviral activity against Kunjin virus. Format: functional, organism-based. As to conditions: West Nile virus.
The subject of data set [5] is dengue virus type 2. The experiment in a line: Antiviral activity against Dengue virus 2 infected in syrian hamster BHK-21 cells assessed as inhibition of plaque formation pretreated with compound for 45 mins followed by viral infection for 24 hrs. The class given is functional. As to conditions: BHK-21, 24.75 h, time 1485 min.
For data set [6], the system named is dengue virus type 3. The experiment in a line: Antiviral activity against Dengue virus 3 infected in syrian hamster BHK-21 cells assessed as inhibition of plaque formation pretreated with compound for 45 mins followed by viral infection for 24 hrs. The following applies: BHK-21, 24.75 h, time 1485 min. The class given is functional.

As for `NC(=O)c1cccc(-c2cc(Nc3ccc(OC(F)(F)F)cc3)ncn2)c1`, the IC90 in data set [1], in data set [3], in data set [5] and in data set [6] was 20 µM throughout. For the same compound, in data set [2], the half-maximal inhibitory concentration (IC50) was more than 10 µM. The compound further showed an EC50 in data set [4] of more than 20 µM.

The IC90 is the concentration at which the effect reaches the 90% level. The term IC50 denotes the point on the concentration scale where inhibition reaches its midpoint. In general, EC50 refers to the concentration that produces a half-maximal response. The low end stands for higher potency in that assay, the high end for lower potency in that assay.

These data come from ChEMBL document CHEMBL6134836, “Medicinal Chemistry: A Key Driver in Achieving the Global Sustainable Development Goals” (J Med Chem, 2025).
